# Test results as given in patent publication US20230365988A1, “MOUSE MODEL FOR BIO-IMAGING OF INFLAMMATORY SIGNALS, PREPARATION METHOD THEREFOR AND USE THEREOF” (KOREA MOUSE PHENOTYPING CENTER, priority 2020, published 2023).
# Entries after “also recorded” stand apart in the source; their conditions may differ.
# Legend:
# NF-κB [1] = test: DSS-induced colitis model, luciferase imaging; type: in vivo; details: 3% DSS as drinking water, days 3 and 5, Lyz2-Cre reporter mouse
# Experimental: Colitis was induced by DSS (dextran sulfate sodium salt) in the mouse model established in Example <2-1>, and it was confirmed whether bio-imaging of inflammatory signals over time was possible.
# Particularly, 6 g of DSS was added to sterilized tertiary distilled water and stirred for 60 minutes to prepare a 3% DSS aqueous solution. […] After the measurement, the 3% DSS aqueous solution was supplied as drinking water to the mice. While maintaining DSS supply, 100 ? of D-luciferin (15 mg/ ? in PBS) was intraperitoneally administered using a 1 ? syringe on the days after 3 and 5 days after the start of DSS supply, and luciferase signals were measured in the abdomen.
# NF-κB [2] = test: Luciferase activity in LPS-treated bone marrow-derived macrophages of the myeloid-specific NF-κB reporter mouse; type: cell-based; details: 6 hours
# Experimental: (§1) Macrophages, mononuclear cells, derived from the bone marrow of the mouse model established in Example <2-1> were differentiated, luciferase activity was confirmed, and NF-κ activity and luciferase protein expression were confirmed by Western blotting. In addition, 20 uM BAY 11-7082 (NF-kB inhibitor) was treated simultaneously with LPS in the same manner as above to evaluate the luciferase activity.
# Particularly, the mouse was euthanized with CO2, the femur and tibia were obtained, and the bone marrow cavity was exposed. Then, RPMI 1640 culture medium (10% FBS, 1% penicillin, stretptomycin) containing M-CSF was passed through using a 1 ml syringe, and the contents were collected to make 6 ml of the culture medium. Thereafter, the contents were transferred to a Petri dish and cultured for 3 days at 37° C. under 5% CO2 conditions, and then the medium was replaced with fresh RPMI 1640 culture medium. After 3 days, the culture medium was removed from the Petri dish and washed with PBS (phosphate buffered saline). […] After 6 hours, the culture medium was removed, and 100 μl of HBSS (Hanks' Balanced Salt solution) containing D-luciferin was added to each well of the plate, and then the luciferase activity was evaluated.
# NF-κB [3] = test: Western blotting of luciferase expression in LPS-treated bone marrow-derived macrophages; type: cell-based, mouse; details: LPS 10 ng/ml and 100 ng/ml, 6 hours
# Experimental: as §1
# For Western blotting, the detached cells were diluted in RPMI 1640 culture medium, and then distributed in a 6 well plate at the density of 70,000 cells/well, followed by culture. After 24 hours of culture, the experimental group was treated with LPS at the concentrations of 10 ng/ml and 100 ng/ml for 6 hours. The culture medium was removed and homogenized with a buffer containing 20 mM Tris-HCl (pH 7.4), 1% Triton X-100, 15 mM NaCl and protease inhibition cocktail, and centrifuged at 4° C., 13,000 g for 20 minutes. Then, SDS-PAGE (sodium dodecyl sulfate-polyacrylamide gel electrophoresis) was performed using the supernatant to separate proteins. The separated proteins were transferred to a PVDF membrane and blocked with TBST buffer (Tris-Buffered Saline, 0.1% TWEEN 20) containing 5% skim milk powder. […]
# NF-κB [4] = test: PMA-induced ear edema model, luciferase imaging; type: in vivo; details: 2 μg PMA on left ear twice at a 24 hour interval, measured 24 hours later, Lyz2-Cre reporter mouse
# Experimental: To confirm imaging of inflammatory signals in the mouse model established in Example <2-1>, ear edema was induced by treatment with PMA (phorbol 12-myristate 13-acetate), an inflammatory factor.
# Particularly, the left ear of the mouse was treated with 2 μg/40 ? of PMA diluted in ethanol using a micropipette, and the right ear was treated with the same amount of ethanol (40 ? ). After 24 hours, the left ear was treated with 2 μg of PMA, and the right ear was treated with the same amount of ethanol (40 ? ). After another 24 hours, 100 ? of D-luciferin (15 mg/ml in PBS) was intraperitoneally administered using a 1 ml syringe, and luciferase signals were measured in the ears of the mouse under respiratory anesthesia with isoflurane.
compound,measurement,setting,value
dextran sulfate sodium salt [DSS],luciferase signal in the large intestine region of the abdomen,NF-κB [1],strongly expressed
lipopolysaccharide [LPS],luciferase signal activity,NF-κB [2]; LPS 10 ng/ml and 100 ng/ml,increased by LPS dose-dependently
same,luciferase expression by Western blotting,NF-κB [3],luciferase expression was increased
Cc1ccc(S(=O)(=O)/C=C/C#N)cc1 [BAY 11-7082],LPS-increased luciferase signal activity (NF-kB activity) after inhibitor treatment,NF-κB [2]; 20 uM BAY 11-7082 simultaneously with LPS (10 and 100 ng/ml),inhibited; also recorded: suppressed
"CCCCCCCCCCCCCC(=O)O[C@@H]1[C@@H](C)[C@@]2(O)[C@@H](C=C(CO)C[C@]3(O)C(=O)C(C)=C[C@@H]23)[C@@H]2C(C)(C)[C@]12OC(C)=O [PMA, phorbol 12-myristate 13-acetate]",luciferase signal in treated left ear compared to ethanol-treated right ear,NF-κB [4],specifically strong
